Laboratory results from ChEMBL document CHEMBL6127062, “Targeted degradation of METTL3 against acute myeloid leukemia and gastric cancer” (Eur J Med Chem, 2024).
Active and inactive are the calls of the source. The rule behind the calls is not given here.

Legend:
[1] = target: T1, Protein cereblon/N(6)-adenosine-methyltransferase catalytic subunit METTL3 (Homo sapiens) (UniProt Q96SW2+Q86U44); test: PROTAC activity at CRBN/METTL3 in human MOLM-13 cells assessed as induction of METTL3 degradation at 1 uM by Western blot analysis relative to control; type: cell-based
T1 sequence (Q86U44 whole entry, looked up): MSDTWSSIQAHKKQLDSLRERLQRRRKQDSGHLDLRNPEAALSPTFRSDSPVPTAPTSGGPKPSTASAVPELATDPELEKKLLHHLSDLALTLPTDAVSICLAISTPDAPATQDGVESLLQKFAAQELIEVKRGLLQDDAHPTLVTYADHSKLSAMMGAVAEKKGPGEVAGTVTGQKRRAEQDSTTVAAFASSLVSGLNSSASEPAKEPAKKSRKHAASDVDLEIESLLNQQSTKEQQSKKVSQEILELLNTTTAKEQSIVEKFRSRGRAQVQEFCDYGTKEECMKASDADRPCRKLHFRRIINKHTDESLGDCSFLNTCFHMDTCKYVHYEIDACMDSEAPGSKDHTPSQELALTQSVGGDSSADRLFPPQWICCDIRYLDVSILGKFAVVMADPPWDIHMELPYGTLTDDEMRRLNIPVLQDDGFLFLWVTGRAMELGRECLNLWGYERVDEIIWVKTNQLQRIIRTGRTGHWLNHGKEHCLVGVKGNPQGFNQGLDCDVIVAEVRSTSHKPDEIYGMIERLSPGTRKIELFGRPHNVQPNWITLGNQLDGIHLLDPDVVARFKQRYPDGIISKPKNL
T1 sequence (Q96SW2 whole entry, looked up): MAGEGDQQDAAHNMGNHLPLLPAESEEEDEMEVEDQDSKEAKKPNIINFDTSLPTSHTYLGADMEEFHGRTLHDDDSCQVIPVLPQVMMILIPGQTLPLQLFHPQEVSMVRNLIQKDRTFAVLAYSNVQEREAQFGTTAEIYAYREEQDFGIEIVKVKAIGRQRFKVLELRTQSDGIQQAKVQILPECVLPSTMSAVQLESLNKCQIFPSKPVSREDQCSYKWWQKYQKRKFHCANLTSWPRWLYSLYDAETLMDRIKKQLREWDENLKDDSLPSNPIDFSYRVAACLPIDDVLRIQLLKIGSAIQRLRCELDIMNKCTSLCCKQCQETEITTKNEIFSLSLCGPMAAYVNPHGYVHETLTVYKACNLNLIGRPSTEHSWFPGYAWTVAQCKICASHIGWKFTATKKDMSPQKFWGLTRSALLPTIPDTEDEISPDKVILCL

[2] = target: T1, Protein cereblon/N(6)-adenosine-methyltransferase catalytic subunit METTL3 (Homo sapiens); test: PROTAC activity at CRBN/METTL3 in human MOLM-13 cells assessed as induction of METTL3 degradation at 10 uM by Western blot analysis relative to control; type: cell-based
SNU-484 = test: Anticancer activity against human SNU484 cells assessed as inhibition of cell growth incubated for 72 hrs by cell viability assay; type: functional, cell-based
MOLM-13 = test: Antiproliferative activity against human MOLM-13 cells assessed as inhibition of cell proliferation measured after 72 hrs by Celltiter Glo luminescent cell viability assay; type: functional, cell-based; settings: MOLM-13, 72 h
GES1 = test: Anticancer activity against human GES1 cells assessed as inhibition of cell growth incubated for 72 hrs by cell viability assay; type: functional, cell-based
AGS = test: Anticancer activity against human AGS cells assessed as inhibition of cell growth incubated for 72 hrs by cell viability assay; type: functional, cell-based

## CC1(C)CCN(Cc2cc(F)c(N3CC(=O)NC4(CCN(c5cc(NCCCCCCCCCCC(=O)N6CCN(c7ccc8c(c7)C(=O)N(C7CCC(=O)NC7=O)C8=O)CC6)ncn5)CC4)C3)cc2F)CC1 (configuration not stated)
[1]
  Activity: 9%
[2]
  Activity: 22%

## CNc1cc(N2CCC3(CC2)CN(c2cc(F)c(CN4CCC(C)(C)CC4)cc2F)CC(=O)N3)ncn1
SNU-484
  Activity: inactive
MOLM-13
  IC50: 6.17 µM
GES1
  Activity: inactive
AGS
  Activity: inactive

## O=C(NCc1cn2cc(CNCC3CCCCC3)ccc2n1)c1cc(=O)n2ccccc2n1
SNU-484
  Activity: inactive
MOLM-13
  IC50: 5.47 µM
GES1
  Activity: inactive
AGS
  Activity: inactive

## CC1(C)CCN(Cc2cc(F)c(N3CC(=O)NC4(CCN(c5cc(NCCCCCC(=O)N6CCN(c7ccc8c(c7)C(=O)N(C7CCC(=O)NC7=O)C8=O)CC6)ncn5)CC4)C3)cc2F)CC1 (configuration not stated)
[1]
  Activity: 32%
[2]
  Activity: 35%
